Legend:
flies (family Muscidae) [1] = assay: Oviposition inhibition tests (treated fly food; Examples 6-9); type: in vivo
How it was run: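 Compound mixed via acetone into sugar/dry milk/egg yolk fly food, solvent evaporated. Cages of 100 newly-emerged adults fed treated diet 6-7 days, then given moist CSMA larva-rearing medium for 4-6 h; cups examined for eggs.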

flies (family Muscidae) [2] = assay: Chemosterilancy tests (egg hatch and pupal development; Examples 6-9); type: in vivo
How it was run: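 Compound fed to flies in sugar/milk powder/egg yolk diet, applied in acetone that was then evaporated. 100 laid eggs per cup transferred onto larval rearing medium. Scored as percentage egg hatch and pupal development.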

[3] = tested on: Salmonella tester strains TA-100, TA-98, TA-1537; assay: Ames' Salmonella/microsome mutagenicity procedure
Procedure: The mutagenic activity of D, A, B, M, N, and CC were tested by the standard Ames' Salmonella/microsome procedure, which is reported to show better than 90% correlation with development of mammalian cancers (Ames et al., Mutation Research, Vol. 31, p. 347, 1975; McCann et al., Proc. Nat. Acad. Sci., Vol. 72, p. 5135, 1975). Tester strains TA-100, TA-98, TA-1537 and the plate test method were used, employing concentrations of 10, 100, 1000, and 10,000 […]. The metabolic activation mixture (S-9 mix) used the 9000 times g supernatant of Arochlor-1254-induced rat liver homogenate at a level of 100 μl per ml of S-9 mix.

Solubility in water = type: physicochemical
mice = assay: Oral toxicity in mice; conditions: mouse, in vivo, po
Procedure: (§1) Compounds D, A, and B were also assayed for oral toxicity in mice.

Oral toxicity in mice = conditions: mouse, in vivo; oral, mice; read-out: Estimated LD50
Procedure: as §1

screwworm flies = assay: Anti-procreant tests on screw-worm fly; type: in vivo
Procedure: These tests were conducted on mass-reared screwworm flies which had been obtained as pupae from the screwworm fly plant at Mission, Texas. The flies were held in cages with water and undiluted corn syrup in a colony room maintained at about 27° C. and 60% relative humidity (RH) with a 12-hour photoperiod beginning at 6 a.m. Adults that emerged were lightly anesthetized with CO2 for ease of manipulation the same day.
The mixtures obtained were fed to the flies in "Dixie" paper cups, 7 cm diameter, and rice hulls were placed on the surface of the food to prevent the flies from getting stuck in the viscous mixture.
Initially, varying concentrations of a chemosterilant were fed to the flies for the first 5 days of life. Thereafter, the chemosterilant was replaced with pure corn syrup. On the 7th day, 3 replicates of 10 flies were stimulated to oviposit and the flies which oviposited were checked for insemination by an examination of the spermathecae for live sperms. The total number of eggs per fly was estimated and the hatchability of these eggs (fertility) was determined 24 hours later (at 37° C.). Observations were made to determine percentage of egg hatch.

[4] = tested on: male flies (family Muscidae); assay: Sterilization of treated males crossed with virgin untreated females; type: in vivo; conditions: 1.0% in food
Procedure: The compound to be tested was administered in a standard fly food containing 6 parts of sugar, 6 parts of powdered non-fat dry milk, and 1 part of powdered egg yolk. Treated food was prepared by mixing an appropriate amount of a solution or suspension of CBCP in acetone with a batch of the food. The acetone was evaporated (4-6 hours) and the dry material was repulverized.
These flies were maintained on untreated fly food. After 5 days, cups containing the larval-rearing medium was provided as previously described and a 100-egg sample was collected and place on moist larve-rearing medium. About a week after oviposition, examination was made to determine the percentage of hatched eggs and of pupae developed.

[5] = tested on: early fourth-stage larvae of the common malaria mosquito (Anopheles quadrimaculatus); assay: Growth-inhibition tests on mosquito larvae; type: in vivo; conditions: in water; corrected by Abbott's formula
How it was run: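 Fifty early fourth-instar larvae held in 1 L treated water with daily feeding; pupae moved to emergence cages. Dead larvae, pupae and dead, malformed or non-eclosing adults summed, Abbott-corrected as growth inhibition; GI-90 is ppm concentration inhibiting 90% of larvae.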

Row | SMILES | Mortality, parent generation (flies (family Muscidae) [1]; 0.05% in food) [%] | Mortality, parent generation (flies (family Muscidae) [1]; 0.1% in food) [%] | Mortality, parent generation (flies (family Muscidae) [1]; 0.25% in food) [%] | Egg hatch (flies (family Muscidae) [2]; 0.05% in food) [%] | Pupal development (flies (family Muscidae) [2]; 0.05% in food) [%] | Egg hatch (flies (family Muscidae) [2]; 0.1% in food) [%] | Pupal development (flies (family Muscidae) [2]; 0.1% in food) [%] | Egg hatch (flies (family Muscidae) [2]; 0.25% in food) [%] | Pupal development (flies (family Muscidae) [2]; 0.25% in food) [%] | solubility in water (Solubility in water) | oral toxicity (in words) (mice) | LD50 (Oral toxicity in mice) [mg/kg] | Inhibition of embryogenesis (screwworm flies; 0.01% in food) [%] | Oviposition (screwworm flies; 0.01% in food) [%] | Survival, Female (screwworm flies; 0.01% in food) [%] | Survival, Male (screwworm flies; 0.01% in food) [%] | Inhibition of embryogenesis (screwworm flies; 0.10% in food) [%] | Oviposition (screwworm flies; 0.10% in food) [%] | Survival, Female (screwworm flies; 0.10% in food) [%] | Survival, Male (screwworm flies; 0.10% in food) [%] | also measured
1 | CC(C)(C)c1cc(Cc2ccccc2)c(O)c(C(C)(C)C)c1 [D, 2,4-Di-t-butyl-6-benzylphenol] | 0 | 0 | 0 | 90 | 90 | 0 | 0 | 0 | 0 | low solubility in water | only slightly toxic | 3430 | 95.2 | 66.7 | 49.3 | 46.0 | 100 | 95.0 | 88.7 | 55.0 | Mortality, parent generation (flies (family Muscidae) [1]; 0.5% in food): 0%; Mortality, parent generation (flies (family Muscidae) [1]; 1.0% in food): 0%; Egg hatch (flies (family Muscidae) [2]; 0.5% in food): 0%; Pupal development (flies (family Muscidae) [2]; 0.5% in food): 0%; Egg hatch (flies (family Muscidae) [2]; 1.0% in food): 0%; Pupal development (flies (family Muscidae) [2]; 1.0% in food): 0%; revertant frequencies ([3]; 10-10,000 μg/plate in TA-100 and S-9): exceeded the mean control value plus two or three standard deviations; mutagenic response relative to known mutagenic agents which revert this strain ([3]; TA-100 and S-9): extremely weak; sterilization of males [4]: 100%
2 | CC(c1ccccc1)c1cc(C(C)(C)C)cc(C(C)(C)C)c1O (stereo not drawn) [A, 4,6-Di-t-butyl-2-α-methylbenzylphenol] | 0 | 0 | 0 | 0 | 0 | 0 | 0 | 0 | 0 | low solubility in water | only slightly toxic | 2510 | 100 | 63.3 | 71.3 | 54.0 | 100 | 90.0 | 68.0 | 47.0 | Mortality, parent generation (flies (family Muscidae) [1]; 0.01% in food): 0%; Mortality, parent generation (flies (family Muscidae) [1]; 0.025% in food): 0%; Egg hatch (flies (family Muscidae) [2]; 0.01% in food): 39%; Pupal development (flies (family Muscidae) [2]; 0.01% in food): 39%; Egg hatch (flies (family Muscidae) [2]; 0.025% in food): 28%; Pupal development (flies (family Muscidae) [2]; 0.025% in food): 28%; mutagenic activity ([3]; TA-100, TA-98, TA-1537, without or with metabolic activation): non-mutagenic; GI-90 (concentration of growth inhibitor that would prevent and/or retard growth in 90% of the treated larvae) [5]: 0.039 ppm

— patent US4357344A, “Polybutylbenzylphenols and benzyl-3,4-methylenedioxybenzenes in insect population control” (The United States of America as represented by the …, priority 1979, dated 1982)
